Several values for one entry are separate records, joined by “and”; a condition that tells them apart may be missing. Equal values may be shown once.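 In this assay, cells in 96-well plates receive the compound at five concentrations for 48 hours. Endpoints are linearly interpolated between the surrounding concentrations. GI50 = concentration required for 50% inhibition of growth. At the TGI there is no net growth.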
Key:
Test in all cases: NCI tumour cell line growth inhibition, 48 h
COLO 205 colon = test system: COLO 205 colon
SN12C renal = test system: SN12C renal
BT-549 breast = test system: BT-549 breast
UACC-257 melanoma = test system: UACC-257 melanoma
SK-MEL-5 melanoma = test system: SK-MEL-5 melanoma
DMS 273 small cell lung = test system: DMS 273 small cell lung
HCT-116 colon = test system: HCT-116 colon
LOX IMVI melanoma = test system: LOX IMVI melanoma
SF-268 CNS = test system: SF-268 CNS
DLD-1 colon = test system: DLD-1 colon

Compound | GI50 (COLO 205 colon) | TGI (COLO 205 colon) | TGI (SN12C renal) | TGI (BT-549 breast) | TGI (UACC-257 melanoma) | TGI (SK-MEL-5 melanoma) | TGI (DMS 273 small cell lung) [µM] | TGI (HCT-116 colon) | TGI (LOX IMVI melanoma) | TGI (SF-268 CNS) | TGI (DLD-1 colon) [µM] | GI50 (SN12C renal) | GI50 (BT-549 breast) | GI50 (UACC-257 melanoma) | GI50 (SK-MEL-5 melanoma) | GI50 (HCT-116 colon) | GI50 (LOX IMVI melanoma) | GI50 (SF-268 CNS)
NCCCNCCS | > 100 µM and 46.9 µM | > 100 µM | > 100 µM | > 100 µM | > 100 µM | > 100 µM | > 100 | > 100 µM | > 100 µM | > 100 µM | – | – | – | – | – | – | – | –
COc1ccc(NC(=O)CC/C(CC(=O)c2ccco2)=N/NC(=O)C(N)=O)cc1 | – | > 100 µM | > 100 µM | – | > 100 µM | > 100 µM | > 100 | – | > 100 µM | > 100 µM | > 100 | – | – | – | – | – | – | –
Cc1ccc(S(=O)(=O)N/N=C2\CCCCC23CCC(=O)NC3)cc1 (stereo not given) | – | > 100 µM | > 100 µM | – | > 100 µM | > 100 µM | > 100 | > 100 µM | – | > 100 µM | > 100 | – | – | – | – | – | – | –
COc1ccc([C@@]2(O)c3c(ccc(O)c3OC)[C@H]2OC)c(OC)c1 | – | > 100 µM | > 100 µM | – | > 100 µM | > 100 µM | – | > 100 µM | – | > 100 µM | > 100 | – | – | – | – | – | – | –
CC(=O)C1C(c2ccccc2)C2(C)OC(=O)C(C#N)C12C (stereo not given) | – | > 100 µM | > 100 µM | – | – | > 100 µM | > 100 | > 100 µM | > 100 µM | > 100 µM | > 100 | – | – | – | – | – | – | –
COc1cc(NCC(C#N)C#N)ccc1N=Nc1ccc(Cl)cc1 | – | 31.7 µM | > 100 µM | – | – | 45.9 µM | 41.4 | 62.2 µM | 36.1 µM | > 100 µM | 85.4 | – | – | – | – | – | – | –
CC(=O)Oc1c(C)c(-c2ccccc2)c(C)c(-c2ccccc2)c1C(=S)c1ccccc1 | – | > 100 µM | > 100 µM | – | > 100 µM | > 100 µM | – | > 100 µM | > 100 µM | > 100 µM | > 100 | – | – | – | – | – | – | –
CS(=O)(=O)CCNCc1coc(-c2ccc3ncnc(Nc4ccc(OCc5ccccc5)cc4)c3c2)c1 | 4.78 µM | 9.84 µM | 8.04 µM | > 25 µM | 7.39 µM | 6.46 µM | – | 7.53 µM | 8.81 µM | 7.5 µM | – | 3.57 µM | 10.9 µM | 3.67 µM | 3.27 µM | 3.88 µM | 4.27 µM | 3.35 µM
Cn1c(Cl)c(/C=C2/C(=O)Nc3ccccc32)c2ccccc21 | 0.705 µM | 6.64 µM | 23.7 µM | 3.87 µM | 37.8 µM | 1.23 µM | – | 12.3 µM | 18.9 µM | > 35.7 µM | – | 1.87 µM | 0.243 µM | 10.7 µM | 0.0964 µM | 0.306 µM | 1.16 µM | 4.08 µM
CCN(CC)CCCC(CCl)Nc1ccnc2cc(Cl)ccc12 (stereo not given) | 29.5 µM and 15.1 µM | > 100 µM | > 100 µM | 60.2 µM and 49.1 µM | 15.3 µM and 31.1 µM | 23.5 µM and 28.6 µM | – | 25.2 µM and 30.4 µM | 42.3 µM and 31.4 µM | 49.8 µM and 97 µM | – | 52.1 µM and 48 µM | 22.4 µM and 15.2 µM | 3.78 µM and 14.6 µM | 10.3 µM and 13 µM | 9.81 µM and 6.94 µM | 8.43 µM and 8.53 µM | 17.1 µM and 21.6 µM
CCCCCCCCCCCCCCCCCCOC[C@H](COP(=O)(O)O[C@H]1[C@H](O)[C@@H](O)[C@H](O)C[C@H]1O)OC | 26.6 µM and 11 µM | > 100 µM and 24.2 µM | > 100 µM and 25.2 µM | > 100 µM and 30.4 µM | > 100 µM and 31.5 µM | > 100 µM and 32.3 µM | – | > 100 µM and 30.7 µM | > 100 µM and 27.3 µM | > 100 µM and 29.7 µM | – | > 100 µM and 12.2 µM | > 100 µM and 15.9 µM | > 100 µM and 17 µM | > 100 µM and 18 µM | > 100 µM and 15.8 µM | 47.1 µM and 13.4 µM | > 100 µM and 15 µM
O=C(Oc1ccc[nH]c1=O)c1cc([N+](=O)[O-])cc([N+](=O)[O-])c1 | > 100 µM | > 100 µM | > 100 µM | > 100 µM | > 100 µM | > 100 µM | – | > 100 µM | > 100 µM | > 100 µM | – | > 100 µM | > 100 µM | > 100 µM | 34.3 µM | > 100 µM | > 100 µM | > 100 µM
CC1(O)C(C)(O)C2(C)O[Te]3(OC12C)OC1(C)C(C)(O)C(C)(O)C1(C)O3 (stereo not given) | – | > 100 µM | > 100 µM | – | > 100 µM | 32.7 µM | 67.3 | – | 18.9 µM | – | > 100 | – | – | – | – | – | – | –
COc1cccc2c1C(=N)c1c(O)c3c(c(O)c1C2=O)C[C@@](O)(C(C)=O)C[C@@H]3O[C@H]1C[C@H](N)[C@H](O)[C@H](C)O1 | – | 3.16 µM | 1.21 µM | 4.58 µM | 8.99 µM | 2.17 µM | – | 6.6 µM | 1.49 µM | 3.62 µM | – | 0.224 µM | 0.813 µM | 1.34 µM | 0.523 µM | 0.277 µM | 0.178 µM | 0.339 µM
COc1ccc2c(c1)C(=O)/C(=C/c1cccc(OCC(=O)c3ccccc3)c1)O2 | 1.9 µM | 3.57 µM | 25.6 µM | 13.1 µM | 33.5 µM | 28.1 µM | – | 2.96 µM | 9.54 µM | 16.6 µM | – | 6.15 µM | 3.63 µM | 18.8 µM | 14.3 µM | 1.53 µM | 2.83 µM | 4.25 µM
CC(C)C(O)(C(C)C)C(C)C | – | > 100 µM | > 100 µM | > 100 µM | > 100 µM | > 100 µM | – | > 100 µM | > 100 µM | > 100 µM | – | – | – | – | – | – | – | –
O=C(Nc1ccc(Cl)cc1)C1C(=O)C(=O)N(c2ccc(Cl)cc2)C1=O (stereo not given) | – | > 100 µM | > 100 µM | – | – | > 100 µM | > 100 | > 100 µM | > 100 µM | > 100 µM | > 100 | – | – | – | – | – | – | –
O=C(O)c1ccc(CN2CCC(CN[C@@H]3C[C@H]3c3ccccc3)CC2)cc1 | > 100 µM | > 100 µM | > 100 µM | > 100 µM | > 100 µM | > 100 µM | – | > 100 µM | > 100 µM | > 100 µM | – | > 100 µM | > 100 µM | > 100 µM | > 100 µM | > 100 µM | > 100 µM | > 100 µM
Cc1nnc(-c2ccc(C)c(-c3ccc(C(=O)Nc4cccc(C#N)c4)cc3)c2)o1 | > 25 µM | > 25 µM | > 25 µM | > 25 µM | > 25 µM | > 25 µM | – | > 25 µM | > 25 µM | > 25 µM | – | > 25 µM | > 25 µM | > 25 µM | > 16.2 µM | > 25 µM | > 25 µM | > 25 µM
CC/C=C\C[C@H]1CC=C2C(=O)C=C[C@@H]2CC=CCCCC(=O)O[C@@H](CCCCC)CC=C2C(=O)C=C[C@@H]2CC=CCCCC(=O)O[C@@H](CCCCC)CC=C2C(=O)C=C[C@@H]2CC=CCCCC(=O)O[C@@H](CCCCC)CC=C2C(=O)C=C[C@@H]2CC=CCCCC(=O)O1 | 1.64 µM | 3.6 µM | 6.86 µM | 5.21 µM | > 7.9 µM | 4.5 µM | – | 3.06 µM | 2.47 µM | > 7.9 µM | – | 1.99 µM | 1.78 µM | 2.95 µM | 1.85 µM | 1.3 µM | 1.22 µM | 2.62 µM
CCCC1(CC(=O)O)OCCc2c1[nH]c1ccccc21 (stereo not given) | – | > 100 µM | > 100 µM | – | > 100 µM | > 100 µM | > 100 | – | > 100 µM | > 100 µM | > 100 | – | – | – | – | – | – | –
Cc1ccc(S(=O)(=O)N=Nc2c(O)[nH]c3cc(O)c(C(=O)O)cc23)cc1 | – | > 100 µM | > 100 µM | > 100 µM | > 100 µM | > 100 µM | – | > 100 µM | > 100 µM | > 100 µM | – | – | – | – | – | – | – | –
Oc1ccc2ccccc2c1N=Nc1cccc2ccccc12 | – | > 100 µM | > 100 µM | > 100 µM | > 100 µM | > 100 µM | – | > 100 µM | > 100 µM | > 100 µM | – | – | – | – | – | – | – | –
COc1ccc(C(C#N)NC23CC4CC(CC(C4)C2)C3)cc1 (stereo not given) | – | > 100 µM | > 100 µM | > 100 µM | > 100 µM | > 100 µM | – | > 100 µM | > 100 µM | > 100 µM | – | – | – | – | – | – | – | –
C[C@]12CC=CC(=O)[C@@]1(C)CCC(=O)C2 | – | – | > 100 µM | – | > 100 µM | > 100 µM | > 100 | > 100 µM | – | > 100 µM | > 100 | – | – | – | – | – | – | –
C#CC1(O)C(COP(=O)(O)OCC(COP(=O)(O)OCC2OC(n3cc(F)c(=O)[nH]c3=O)CC2O)OCCCCCCCCCCCCCCCCCC)OC(n2ccc(N)nc2=O)C1O (stereo not given) | < 0.0202 µM | 1.07 µM | 1.93 µM | 5.41 µM | > 31.6 µM | 9.29 µM | – | > 40.7 µM | > 27.7 µM | 9.45 µM | – | < 0.0229 µM | 0.155 µM | 0.448 µM | 0.275 µM | < 0.01 µM | 0.0765 µM | 0.102 µM
N#C/C(=C/c1cccc(Oc2ccccc2)c1)c1ccccc1 | – | > 100 µM | > 100 µM | – | > 100 µM | > 100 µM | – | > 100 µM | > 100 µM | > 100 µM | > 100 | – | – | – | – | – | – | –
Cc1cn(C2CC(OC(=O)c3ccc(Cl)cc3)C(COC(=O)c3ccc(Cl)cc3)O2)c(=O)[nH]c1=O (stereo not given) | – | > 100 µM | > 100 µM | > 100 µM | > 100 µM | > 100 µM | – | > 100 µM | > 100 µM | > 100 µM | – | – | – | – | – | – | – | –
